The source of these data is ChEMBL document CHEMBL3124848, “Crystal structures of human transthyretin complexed with glabridin” (J Med Chem, 2014).

The target in the experiment is Transthyretin (Homo sapiens, UniProt P02766, V50M). The experiment is described as follows: Inhibition of transthyretin V30M mutant (unknown origin) expressed in Escherichia coli assessed as inhibition of sodium acetate-mediated aggregation preincubated for 30 mins followed by sodium acetate addition measured after 96 hrs by thioflavin T assay.
In general, IC50 refers to the concentration at which inhibition is half-maximal. `O=c1c(-c2ccc(O)cc2)coc2cc(O)ccc12` [DAIDZEIN]: the half-inhibitory concentration (IC50) is 16 µM.
In the case of `O=c1c(-c2ccc(O)cc2)coc2cc(O)cc(O)c12` [GENISTEIN] it was 7.8 µM; in that of `CC1(C)C=Cc2c(ccc3c2OC[C@@H](c2ccc(O)cc2O)C3)O1` [GLABRIDIN], 6.4 µM; in that of `Oc1ccc([C@@H]2COc3cc(O)ccc3C2)cc1`, 13 µM.
On to `O=c1cc(-c2ccc(O)c(O)c2)oc2cc(O)cc(O)c12` [LUTEOLIN], for which the 50% inhibitory concentration (IC50) turned out to be 6.4 µM.
